Where “and” joins values, the source holds several entries; their conditions need not be identical. Equal entries are not always repeated. Inconclusive results and toxic doses are left out. No stated cut-off is given here; in the data, active means T/C of 150% or more; inactive means T/C below 125%.
System: L1210 leukemia ip in BDF1 mice, survival T/C
Test: NCI In Vivo Anticancer Drug Screen. Data for tumor model L1210 Leukemia (intraperitoneal) in B6D2F1 (BDF1) mice
Settings: endpoint: mean survival time, higher = longer survival
Experimental: The antitumor activity of compounds was measured in mice bearing transplantable tumors. Survival or tumor size were measured and the results are expressed as the measurement made in the treated group (T) divided by the measurement made in the vehicle treated control group (C). The tumor model used in this assay is L1210 Leukemia (intraperitoneal) in B6D2F1 (BDF1) mice

[1] = dose: 100.0 mg/kg/injection, schedule: Q01DX009 (ip), vehicle: saline with Tween-80
[2] = dose: 200.0 mg/kg/injection, schedule: Q01DX009 (ip), vehicle: saline with Tween-80
[3] = dose: 100.0 mg/kg/injection, schedule: Q01DX009 (ip), vehicle: Klucel (hydroxypropylcellulose) (HPC)
[4] = dose: 100.0 mg/kg/injection, schedule: Q04DX003 (ip), vehicle: Klucel (hydroxypropylcellulose) (HPC)
[5] = dose: 200.0 mg/kg/injection, schedule: Q01DX009 (ip), vehicle: Klucel (hydroxypropylcellulose) (HPC)
[6] = dose: 200.0 mg/kg/injection, schedule: Q04DX003 (ip), vehicle: Klucel (hydroxypropylcellulose) (HPC)
[7] = dose: 400.0 mg/kg/injection, schedule: Q01DX009 (ip), vehicle: Klucel (hydroxypropylcellulose) (HPC)
[8] = dose: 400.0 mg/kg/injection, schedule: Q04DX003 (ip), vehicle: Klucel (hydroxypropylcellulose) (HPC)
[9] = dose: 100.0 mg/kg/injection, schedule: Q04DX003 (ip), vehicle: saline
[10] = dose: 200.0 mg/kg/injection, schedule: Q04DX003 (ip), vehicle: saline
[11] = dose: 400.0 mg/kg/injection, schedule: Q04DX003 (ip), vehicle: saline
[12] = dose: 100.0 mg/kg/injection, schedule: Q01DX001 (ip), vehicle: carboxymethylcellulose (CMC)
[13] = dose: 200.0 mg/kg/injection, schedule: Q01DX001 (ip), vehicle: carboxymethylcellulose (CMC)
[14] = dose: 400.0 mg/kg/injection, schedule: Q01DX001 (ip), vehicle: carboxymethylcellulose (CMC)
[15] = dose: 100.0 mg/kg/injection, schedule: Q01DX001 (ip), vehicle: saline
[16] = dose: 200.0 mg/kg/injection, schedule: Q01DX001 (ip), vehicle: saline
[17] = dose: 100.0 mg/kg/injection, schedule: Q01DX009 (ip), vehicle: saline
[18] = dose: 400.0 mg/kg/injection, schedule: Q01DX009 (ip), vehicle: saline with Tween-80
[19] = dose: 100.0 mg/kg/injection, schedule: Q04DX002 (ip), vehicle: Klucel (hydroxypropylcellulose) (HPC)
[20] = dose: 200.0 mg/kg/injection, schedule: Q04DX002 (ip), vehicle: Klucel (hydroxypropylcellulose) (HPC)
[21] = dose: 400.0 mg/kg/injection, schedule: Q04DX002 (ip), vehicle: Klucel (hydroxypropylcellulose) (HPC)
[22] = dose: 100.0 mg/kg/injection, schedule: Q04DX003 (ip), vehicle: saline with Tween-80
[23] = dose: 200.0 mg/kg/injection, schedule: Q04DX003 (ip), vehicle: saline with Tween-80
[24] = dose: 400.0 mg/kg/injection, schedule: Q04DX003 (ip), vehicle: saline with Tween-80
[25] = dose: 50.0 mg/kg/injection, schedule: Q01DX001 (ip), vehicle: saline
[26] = dose: 25.0 mg/kg/injection, schedule: Q04DX003 (ip), vehicle: saline
[27] = dose: 50.0 mg/kg/injection, schedule: Q04DX003 (ip), vehicle: saline

Measured: T/C

O=[As](O)(O[As](=O)(O)c1ccccc1)c1ccccc1
inactive: dose: 5.0 mg/kg/injection, schedule: Q01DX001 (ip), vehicle: saline 103 % of control | dose: 10.0 mg/kg/injection, schedule: Q01DX001 (ip), vehicle: saline 103 % of control | dose: 20.0 mg/kg/injection, schedule: Q01DX001 (ip), vehicle: saline 103 % of control | dose: 40.0 mg/kg/injection, schedule: Q01DX001 (ip), vehicle: saline 101 % of control

CCNC(=O)N(C)Cc1ccc(Cl)cc1
inactive: [1] 88 % of control | [2] 95 % of control

Nc1ccccc1SC1CC(=O)N(c2ccc(F)cc2)C1=O (centres undefined)
inactive: dose: 100.0 mg/kg/injection, schedule: Q04DX003 (ip), vehicle: carboxymethylcellulose (CMC) 92 % of control | dose: 200.0 mg/kg/injection, schedule: Q04DX003 (ip), vehicle: carboxymethylcellulose (CMC) 92 % of control | dose: 400.0 mg/kg/injection, schedule: Q04DX003 (ip), vehicle: carboxymethylcellulose (CMC) 91 % of control

Cc1[nH]nc2c(NO)ncnc12
inactive: dose: 100.0 mg/kg/injection, schedule: Q01DX001 (ip), vehicle: other 98 % of control | dose: 200.0 mg/kg/injection, schedule: Q01DX001 (ip), vehicle: other 98 % of control | dose: 400.0 mg/kg/injection, schedule: Q01DX001 (ip), vehicle: other 102 % of control

COCc1cc(C(C)(C)C)c(O)c(C(C)(C)C)c1
inactive: [3] 94 % of control | [4] 98 % of control | [5] 89 % of control | [6] 96 % of control | [7] 89 % of control | [8] 88 % of control

O=C(O)C(O)Cc1ccccc1 (centres undefined)
inactive: dose: 90.0 mg/kg/injection, schedule: Q04DX003 (ip), vehicle: saline 105 % of control | [9] 100 % of control and 107 % of control | dose: 135.0 mg/kg/injection, schedule: Q04DX003 (ip), vehicle: saline 100 % of control | [10] 102 % of control and 107 % of control | dose: 300.0 mg/kg/injection, schedule: Q04DX003 (ip), vehicle: saline 92 % of control | [11] 106 % of control

S=c1[nH]nc2scnn12
inactive: dose: 50.0 mg/kg/injection, schedule: Q01DX001 (ip), vehicle: carboxymethylcellulose (CMC) 94 % of control | [12] 94 % of control | [13] 97 % of control | [14] 94 % of control

CCC1c2ccc3cc(OC)ccc3c2C(=O)C1CC(=O)O (centres undefined)
inactive: [15] 93 % of control | [16] 107 % of control

COc1ccc2c(c1)CN(S(=O)(=O)c1ccc(C)cc1)c1ccccc1C2=O
inactive: [17] 89 % of control | dose: 200.0 mg/kg/injection, schedule: Q01DX009 (ip), vehicle: saline 96 % of control | dose: 400.0 mg/kg/injection, schedule: Q01DX009 (ip), vehicle: saline 89 % of control

Cc1cccc(C)c1NC(=O)OCCOc1ccc(Br)cc1
inactive: [1] 95 % of control | [2] 92 % of control | [18] 92 % of control

COC1CCC(/C=C(\C#N)C2CCC(OC)CC2)CC1 (centres undefined)
inactive: [19] 96 % of control | [20] 92 % of control | [21] 96 % of control

O=C(NO)Nc1cccc(Cl)c1
inactive: [12] 103 % of control | [13] 97 % of control | [14] 100 % of control

CC12CC3CC(C)(C1)CC(SCCN=C(N)CCl)(C3)C2
inactive: dose: 10.0 mg/kg/injection, schedule: Q04DX002 (ip), vehicle: Klucel (hydroxypropylcellulose) (HPC) 105 % of control | dose: 20.0 mg/kg/injection, schedule: Q04DX002 (ip), vehicle: Klucel (hydroxypropylcellulose) (HPC) 102 % of control | dose: 40.0 mg/kg/injection, schedule: Q04DX002 (ip), vehicle: Klucel (hydroxypropylcellulose) (HPC) 110 % of control

O=C(NCO)NC1NC(=O)NC1=O (centres undefined)
inactive: [22] 101 % of control | [23] 101 % of control | [24] 108 % of control

O=C(O)C1C(c2ccccc2)CC(=O)N1c1ccc(Cl)cc1 (centres undefined)
inactive: [19] 102 % of control | [20] 91 % of control | [21] 94 % of control

CCOc1ccccc1NC(=S)NC(=O)c1ccc(OC)cc1
inactive: [3] 104 % of control | [4] 109 % of control | [5] 93 % of control | [6] 102 % of control | [7] 93 % of control | [8] 100 % of control

O=C(O)CCS
inactive: [25] 98 % of control

CN1CCC=C(C(=O)N2c3ccccc3Sc3ccccc32)C1
inactive: dose: 25.0 mg/kg/injection, schedule: Q01DX009 (ip), vehicle: saline 88 % of control | [26] 97 % of control | dose: 50.0 mg/kg/injection, schedule: Q01DX009 (ip), vehicle: saline 96 % of control | [27] 96 % of control | [17] 102 % of control | [9] 96 % of control and 105 % of control

CCCC(CC)NC(N)=O (centres undefined)
inactive: [22] 107 % of control | [23] 95 % of control | [24] 109 % of control

C=C=CC(C)(C)C
inactive: [15] 96 % of control | [16] 96 % of control | [10] 100 % of control | dose: 400.0 mg/kg/injection, schedule: Q01DX001 (ip), vehicle: saline 96 % of control | [11] 100 % of control

O=C1NC(c2ccccc2)C(=O)N1CCN(CCCl)CCCl (centres undefined)
inactive: dose: 3.12 mg/kg/injection, schedule: Q01DX009 (ip), vehicle: saline 102 % of control | dose: 3.12 mg/kg/injection, schedule: Q04DX003 (ip), vehicle: saline 98 % of control | dose: 6.25 mg/kg/injection, schedule: Q01DX009 (ip), vehicle: saline 97 % of control | dose: 6.25 mg/kg/injection, schedule: Q04DX003 (ip), vehicle: saline 106 % of control | dose: 12.5 mg/kg/injection, schedule: Q01DX009 (ip), vehicle: saline 100 % of control | dose: 12.5 mg/kg/injection, schedule: Q04DX003 (ip), vehicle: saline 103 % of control | [26] 115 % of control

CC(=O)Oc1ccc2c(c1)oc(=O)c1ccc(C)cc12
inactive: [4] 92 % of control | [6] 87 % of control | [8] 92 % of control

O=c1cc(Cl)c2ccccc2[nH]1
inactive: [1] 95 % of control | [22] 103 % of control | [2] 91 % of control | [23] 94 % of control | [18] 100 % of control | [24] 103 % of control

Clc1ccc2c(c1)ncn1nnnc21
inactive: [27] 95 % of control | [9] 104 % of control | [10] 93 % of control

CCCCC(=O)NC1=CC(=O)c2ccccc2C1=O
inactive: dose: 75.0 mg/kg/injection, schedule: Q01DX001 (ip), vehicle: saline 95 % of control | dose: 150.0 mg/kg/injection, schedule: Q01DX001 (ip), vehicle: saline 91 % of control

CC(=O)Nc1ccc2ccc3ccccc3c2c1
inactive: [3] 94 % of control | [4] 98 % of control | [5] 95 % of control | [6] 98 % of control | [7] 92 % of control | [8] 94 % of control

c1cnc2c3c(ccc2c1)CN(C12CC4CC(CC(C4)C1)C2)CO3
inactive: [22] 102 % of control | [23] 107 % of control

N=c1nc(N)nc2c3ccccc3nnn12
inactive: dose: 75.0 mg/kg/injection, schedule: Q01DX001 (ip), vehicle: other 105 % of control | dose: 150.0 mg/kg/injection, schedule: Q01DX001 (ip), vehicle: other 106 % of control

O=[N+]([O-])c1cc2c(nc3ccccn32)c2ccccc12
inactive: [25] 97 % of control | [15] 96 % of control | [16] 97 % of control

CC(=O)N(Cl)c1ccc(Cl)cc1Cl
inactive: [19] 100 % of control | [20] 98 % of control | [21] 91 % of control

— PubChem BioAssay AID248 (DTP/NCI, 2004)
